{
  "source": "paper PMC6311893",
  "about": "“Computational prediction of plasma protein binding of cyclic peptides from small molecule experimental data using sparse modeling techniques” (BMC Bioinformatics, 2018)",
  "origin": "cited, not measured here",
  "data": [
    {"test_system": "plasma protein", "settings": "fraction bound to plasma protein; small molecule dataset, sheet 1-SM (Set Dte = test, Dtr = training); ref Ingle et al.; cited from earlier work", "values": [
      {"smiles": "CCCCC[C@H](O)/C=C/[C@H]1[C@H](O)CC(=O)[C@@H]1CCCCCCC(=O)O", "note": "[alprostadil]", "PPB (fb)": 0.92},
      {"smiles": "CN(C)CCOC1=Cc2ccccc2Sc2ccc(Cl)cc21", "note": "[zotepine]", "PPB (fb)": 0.97},
      {"smiles": "C=C1CC[C@H](O)C/C1=C/C=C1\\CCC[C@]2(C)[C@@H]([C@H](C)CCCC(C)(C)O)CC[C@@H]12", "note": "[calcifediol]", "PPB (fb)": 0.8},
      {"smiles": "CC1(C)S[C@@H]2[C@H](NC(=O)C(c3ccccc3)S(=O)(=O)O)C(=O)N2[C@H]1C(=O)O", "note": "(stereo partly drawn) [Sulbenicillin]", "PPB (fb)": 0.5},
      {"smiles": "O=C(O)c1cn(-c2ccc(C(F)(F)F)cc2)c2cc(N3CCNCC3)c(F)cc2c1=O", "note": "[3c(p-CF3)]", "PPB (fb)": 0.42}
    ]},
    {"test_system": "plasma protein", "settings": "fraction bound to plasma protein; small molecule dataset, sheet 1-SM, Set Dtr; ref Ingle et al.; cited from earlier work", "values": [
      {"smiles": "Cc1onc(-c2c(F)cccc2Cl)c1C(=O)N[C@@H]1C(=O)N2[C@@H]1SC(C)(C)[C@@H]2C(=O)O", "note": "[Flucloxacillin]", "PPB (fb)": 0.95},
      {"smiles": "O=C1CC[C@@]2(O)[C@H]3Cc4ccc(O)c5c4[C@@]2(CCN3CC2CC2)[C@H]1O5", "note": "[Naltrexone]", "PPB (fb)": 0.2},
      {"smiles": "CS(=O)(=O)OCCCCOS(C)(=O)=O", "note": "[Busulphan]", "PPB (fb)": 0.04},
      {"smiles": "Cc1ccc(/C(=C\\CN2CCCC2)c2ccccn2)cc1", "note": "[triprolidine]", "PPB (fb)": 0.9},
      {"smiles": "C/C=C/C1=C(C(=O)O)N2C(=O)C(NC(=O)C(N)c3ccc(O)cc3)C2SC1", "note": "(stereo not drawn) [Cefprozil]", "PPB (fb)": 0.38},
      {"smiles": "CC(CN1c2ccccc2Sc2ccccc21)N(C)C", "note": "(stereo not drawn) [Promethazine]", "PPB (fb)": 0.88},
      {"smiles": "CC(C)N(CCC(C(N)=O)(c1ccccc1)c1ccccn1)C(C)C", "note": "(stereo not drawn) [Disopyramide]", "PPB (fb)": 0.87},
      {"smiles": "Cc1onc(-c2ccccc2)c1C(=O)N[C@@H]1C(=O)N2[C@@H]1SC(C)(C)[C@@H]2C(=O)O", "note": "[Oxacillin]", "PPB (fb)": 0.92},
      {"smiles": "COc1ccnc(C[S+]([O-])c2nc3ccc(OC(F)F)cc3[nH]2)c1OC", "note": "(stereo not drawn) [Pantoprazole]", "PPB (fb)": 0.98},
      {"smiles": "CCCCNc1cc(C(=O)O)cc(S(N)(=O)=O)c1Oc1ccccc1", "note": "[Bumetanide]", "PPB (fb)": 0.96}
    ]},
    {"test_system": "plasma protein", "settings": "fraction bound to plasma protein; small molecule dataset, sheet 1-SM; ref Ingle et al.; cited from earlier work", "values": [
      {"smiles": "NC[C@H](O)c1ccc(O)c(O)c1", "note": "[norepinephrine]", "PPB (fb)": 0.5},
      {"smiles": "CCCc1nc(C)c2c(=O)[nH]c(-c3cc(S(=O)(=O)N4CCN(CC)CC4)ccc3OCC)nn12", "note": "[Vardenafil]", "PPB (fb)": 0.95},
      {"smiles": "C#C[C@]1(O)CC[C@H]2[C@@H]3CCC4=CC(=O)CC[C@@H]4[C@H]3CC[C@@]21C", "note": "[norethisterone]", "PPB (fb)": 0.8},
      {"smiles": "Cc1c(O)cccc1C(=O)N[C@@H](CSc1ccccc1)[C@H](O)CN1C[C@H]2CCCC[C@H]2C[C@H]1C(=O)NC(C)(C)C", "note": "[nelfinavir]", "PPB (fb)": 0.99},
      {"smiles": "CC(C)=CCC1C(=O)N(c2ccccc2)N(c2ccccc2)C1=O", "note": "[feprazone]", "PPB (fb)": 0.95},
      {"smiles": "CN1CCc2c(c3ccccc3n2Cc2ccccc2)C1", "note": "[mebhydrolin]", "PPB (fb)": 0.04},
      {"smiles": "CCn1cc(C(=O)O)c(=O)c2cnc(N3CCNCC3)nc21", "note": "[pipemidic acid]", "PPB (fb)": 0.3},
      {"smiles": "CC1Cc2ccccc2N1NC(=O)c1ccc(Cl)c(S(N)(=O)=O)c1", "note": "(stereo not drawn) [indapamide]", "PPB (fb)": 0.76},
      {"smiles": "Cc1nc(NS(=O)(=O)c2ccc(N)cc2)oc1C", "note": "[sulfamoxole]", "PPB (fb)": 0.7},
      {"smiles": "O=C(O)c1cccnc1", "note": "[niacin]", "PPB (fb)": 0.22},
      {"smiles": "CC[C@@H](C(N)=O)N1CCCC1=O", "note": "[levetiracetam]", "PPB (fb)": 0.05},
      {"smiles": "C[C@]12CCC(=O)C=C1[C@@H]1C[C@@H]1[C@H]1[C@@H]3[C@@H]4C[C@@H]4[C@@]4(CCC(=O)O4)[C@@]3(C)CC[C@@H]12", "note": "[drospirenone]", "PPB (fb)": 0.97},
      {"smiles": "COc1c(C)nc2ccccc2c1C(=O)NC1C(=O)N2C1SC(C)(C)C2C(=O)O", "note": "(stereo not drawn) [penicillin77]", "PPB (fb)": 0.62},
      {"smiles": "Nc1n[n+]([O-])c2ccccc2[n+]1[O-]", "note": "[Tirapazamine]", "PPB (fb)": 0.19}
    ]},
    {"test_system": "plasma protein", "settings": "plasma; cited from earlier work", "values": [
      {"smiles": "CCC1(CC)C(=O)NC(=O)NC1=O", "note": "[barbital]", "PPB (fb)": 0.1},
      {"smiles": "C#CCN(C)[C@H](C)Cc1ccccc1", "note": "[Selegiline]", "PPB (fb)": 0.9},
      {"smiles": "CC1(C)C[C@@H]1C(=O)N/C(=C\\CCCCSC[C@H](N)C(=O)O)C(=O)O", "note": "[Cilastatin]", "PPB (fb)": 0.37},
      {"smiles": "CCOC(=O)[C@H](CCc1ccccc1)N[C@@H](C)C(=O)N1[C@H](C(=O)O)C[C@@H]2CCC[C@@H]21", "note": "[ramipril]", "PPB (fb)": 0.61}
    ]}
  ]
}
